# Like-named read-outs stand apart in the source and are kept apart here.
# Experiments:
# [1] = treatment of prostate cancer; development stopped in 2011; cited from earlier work
# [2] = Effect of zibotentan on body weight, Experiment 1; format: in vivo, male Wistar rats; conditions: Exp 1; for Body weight, Difference in means vs Vehicle: log scale, linear mixed effects model
# Protocol: (§1) In the first experiment (Experiment 1), the effect of zibotentan on haematocrit (Hct) concentration was determined when zibotentan was administered peroral (p.o) QD for 14 days. […] Animals were weighed daily prior to dosing throughout the experiment. Blood samples (20 μL) for bioanalysis were taken at 4 and 24 hr after the first dose via the tail vein from conscious animals and 24 hr after the last dose via retroorbital route from anesthetized animals. Blood samples were collected via tail vein (100 μL) for Hct concentration and haemoglobin (Hb) measurements, on day 7 and on day 14, 1-2 hr after dosing. Twenty-four hour urine was collected for the measurement of urinary glucose, urine volume and electrolytes between doses nine and ten. Animals were terminated 24 hr after the last dose. On the day of termination, animals were anesthetized using 5% isoflurane, and blood was collected via the retroorbital route (in heparin-coated microvette, Sarsted) and centrifuged at 3,500 rpm at 4° C. for 10 minutes, plasma was collected and stored at −80° C. degrees prior to analysis. Animals were then euthanized by the removal of the heart. Both the heart and the kidneys were extracted and weighed. From the right kidney, a 4 mm thick slice of tissue was collected and fixed in 4% formaldehyde for subsequent histological analysis and a piece of cortical kidney tissue and heart tissue was collected for gene expression analysis.
# (§2) Significance was set at p<0.05.
# [3] = system: male Wistar rats on 4% salt diet; experiment: Effect of zibotentan on kidney and heart weight, Experiment 1; format: in vivo
# Protocol: as §1, §2
# [4] = system: male Wistar rats on 4% salt diet; experiment: Effect of zibotentan on urinary volume and Na, K, urea, creatinine, glucose in the urine, Experiment 1; format: in vivo; conditions: Exp 1; for Urine Creatine / Urine Glucose / Urine K / Urine Na / Urine Urea / Urine volume: 24 hr urine between doses nine and ten
# Protocol: as §1
# (§3) Plasma and Urine Albumin, Creatinine, Glucose, Urea, Potassium and Sodium levels were analyzed using an ABX Pentra 400 instrument (Horiba Medical, Irvine, California, USA) according to the manufacturers protocol.
# as §2
# [5] = Zibotentan blood concentrations, Experiment 1; format: in vivo, male Wistar rats; conditions: male, Wistar, rat, whole blood, oral, Exp 1; for concentration at 4 h: 4 hr post first dose
# Protocol: as §1
# A volume of 20 μL whole blood was precipitated with 150 μL acetonitrile containing internal standard and quickly vortexed, followed by a 20 min centrifugation at 3220 g and 4° C. […] Zibotentan samples were further diluted twice and three times at a 1:10 ratio with 33% acetonitrile, to ensure all diluted samples were detectible within the calibration range.
# Sample concentrations were determined against matrix-spiked calibration standards over a range of 0.010 μM-10.0 μM for dapagliflozin and 0.75 μM-376 μM for zibotentan, applying weighted linear regression (1/X^2) using Waters TargetLynx software version XS V4.2 SCN986. […] Analytical bias was <15% over the concentration range for both analytes.
# Separation was achieved using the following elution gradient: 0 min to 1.5 min, 4% B ramping up to 95% B; 1.5 min to 2.3 min, kept at 95% B; 2.3 min to 2.4 min, 95% B to 4% B and kept at 4% B until 2.7 min. The flow rate was 0.7 mL/min.
# [6] = system: male Wistar rats on 4% salt diet; experiment: Effect of zibotentan on haematocrit (Hct) concentration, Experiment 1; format: in vivo; conditions: Exp 1; for Hct concentration compared to vehicle: FIG. 4
# Protocol: The effect of dapagliflozin and zibotentan on haematocrit (Hct) concentration in male Wistar rats on 4% salt diet was investigated.
# as §1
# (§4) For Hct and Hb analysis, 100 μl of blood from rat's tail vein was collected and measured using CG8 cartridges analysed with an iSTAT instrument (Abbott Point of Care Inc, Abbot Park, IL, USA).
# as §2
# [7] = system: male Wistar rats on 4% salt diet; experiment: Effect of zibotentan on Hb, Experiment 1; format: in vivo; conditions: Exp 1
# Protocol: as §1, §4, §2
# [8] = system: male Wistar rats on 4% salt diet; experiment: Effect of zibotentan on plasma Na, K, glucose and urea, Experiment 1; format: in vivo; conditions: Exp 1
# Protocol: as §1, §3, §2
# [9] = Exp 1, Zibo 30 mg/kg p.o. QD 14 days
# [10] = Exp 1, Zibo 100 mg/kg p.o. QD 14 days
# [11] = Exp 1, Zibo 300 mg/kg p.o. QD 14 days
# [12] = Exp 1, zibotentan 100 mg/kg, 14 days
compound,measurement,setting,value
"COc1nc(C)cnc1NS(=O)(=O)c1cccnc1-c1ccc(-c2nnco2)cc1 [Zibo, N-(3-methoxy-5-methylpyrazin-2-yl)-2-[4-(1,3,4-oxadiazol-2-yl)phenyl]pyridine-3-sulfonamide]",Efficacy in Phase 3,[1],insufficient efficacy
same,"Body weight, Difference in means vs Vehicle",[2]; Zibo 30 mg/kg p.o. QD 14 days,0.02
same,"Body weight, Difference in means vs Vehicle",[2]; Zibo 100 mg/kg p.o. QD 14 days,0.02
same,"Body weight, Difference in means vs Vehicle",[2]; Zibo 300 mg/kg p.o. QD 14 days,0.01
same,Body weight change compared to vehicle,"[2]; zibotentan 30, 100 and 300 mg/kg",no difference
same,Kidney/tibia length,[3],54.00 ± 0.80 mg/mm
same,Heart weight,[3]; [9],1.00 ± 0.02 g
same,Heart/tibia length,[3]; [9],25.00 ± 0.47 mg/mm
same,Kidney weight,[3]; [9],2.13 ± 0.04 g
same,Heart weight,[3]; [10],1.05 ± 0.01 g
same,Heart/tibia length,[3]; [10],27.00 ± 0.37 mg/mm
same,Kidney weight,[3]; [10],2.16 ± 0.05 g
same,Kidney/tibia length,[3]; [10],55.0 ± 1.65 mg/mm
same,Heart weight,[3]; [11],0.98 ± 0.00 g
same,Heart/tibia length,[3]; [11],25.00 ± 0.24 mg/mm
same,Kidney/tibia length,[3]; [11],57.0 ± 1.39 mg/mm
same,Heart weight compared to vehicle,[3]; [12],increase
same,Heart weight increase after normalizing with tibia length,[3]; [12],not statistically significant
same,Kidney weight with or without normalizing with tibia length compared to vehicle,"[3]; Exp 1, zibotentan 300 mg/kg, 14 days",increase
same,Urine Creatine,[4]; Zibo 30 mg/kg p.o. QD,88.8 ± 3.3 µmol
same,Urine Glucose,[4]; Zibo 30 mg/kg p.o. QD,0.01 ± 0.0 mmol
same,Urine K,[4]; Zibo 30 mg/kg p.o. QD,1.57 ± 0.05 mmol
same,Urine Na,[4]; Zibo 30 mg/kg p.o. QD,14.05 ± 0.95 mmol
same,Urine Urea,[4]; Zibo 30 mg/kg p.o. QD,6.19 ± 1.71 mmol
same,Urine volume,[4]; Zibo 30 mg/kg p.o. QD,28.19 ± 2.99 mL
same,Urine Creatine,[4]; Zibo 100 mg/kg p.o. QD,82.8 ± 2.5 µmol
same,Urine Glucose,[4]; Zibo 100 mg/kg p.o. QD,0.02 ± 0.0 mmol
same,Urine K,[4]; Zibo 100 mg/kg p.o. QD,1.52 ± 0.06 mmol
same,Urine Na,[4]; Zibo 100 mg/kg p.o. QD,13.01 ± 1.07 mmol
same,Urine Urea,[4]; Zibo 100 mg/kg p.o. QD,4.04 ± 0.39 mmol
same,Urine volume,[4]; Zibo 100 mg/kg p.o. QD,23.88 ± 2.02 mL
same,Urine Creatine,[4]; Zibo 300 mg/kg p.o. QD,82.9 ± 3.3 µmol
same,Urine Glucose,[4]; Zibo 300 mg/kg p.o. QD,0.18 ± 0.1 mmol
same,Urine K,[4]; Zibo 300 mg/kg p.o. QD,1.44 ± 0.03 mmol
same,Urine Na,[4]; Zibo 300 mg/kg p.o. QD,13.76 ± 0.76 mmol
same,Urine Urea,[4]; Zibo 300 mg/kg p.o. QD,4.60 ± 0.19 mmol
same,Urine volume,[4]; Zibo 300 mg/kg p.o. QD,29.09 ± 2.74 mL
same,"Level of urinary volume, Na, K, urea, creatinine and glucose compared to vehicle",[4]; different doses of zibotentan,no change
same,concentration at 24 h,"[5]; 30 mg/kg, Zibo 30 mg/kg p.o. QD 14 days, 24 hr post last dose",7.39 ± 10.4 µM
same,concentration at 4 h,"[5]; 30 mg/kg, Zibo 30 mg/kg p.o. QD",53.8 ± 17.4 µM
same,concentration at 24 h,"[5]; 30 mg/kg, Zibo 30 mg/kg p.o. QD, 24 hr post first dose",4.68 ± 3.93 µM
same,concentration at 24 h,"[5]; 100 mg/kg, Zibo 100 mg/kg p.o. QD 14 days, 24 hr post last dose",39 ± 32.4 µM
same,concentration at 4 h,"[5]; 100 mg/kg, Zibo 100 mg/kg p.o. QD",134 ± 43.8 µM
same,concentration at 24 h,"[5]; 100 mg/kg, Zibo 100 mg/kg p.o. QD, 24 hr post first dose",39.1 ± 38.1 µM
same,concentration at 24 h,"[5]; 300 mg/kg, Zibo 300 mg/kg p.o. QD 14 days, 24 hr post last dose",249 ± 193 µM
same,concentration at 4 h,"[5]; 300 mg/kg, Zibo 300 mg/kg p.o. QD",247 ± 46 µM
same,concentration at 24 h,"[5]; 300 mg/kg, Zibo 300 mg/kg p.o. QD, 24 hr post first dose",176 ± 108 µM
same,Hct concentration compared to vehicle (significant decrease?),"[6]; zibotentan 30 mg/kg p.o. QD, day 14",not for the lower dose
same,Hct concentration compared to vehicle,"[6]; zibotentan 30, 100 and 300 mg/kg p.o. QD, day 7",significant (p<0.05) decrease
same,Hct concentration compared to vehicle,"[6]; zibotentan 100 and 300 mg/kg p.o. QD, day 14",significant (p<0.05) decrease
same,Day 7 Hb,[7]; Zibo 30 mg/kg p.o. QD,146.4 g/L
same,Day 14 Hb,[7]; Zibo 30 mg/kg p.o. QD,156.8 g/L
same,Day 7 Hb,[7]; Zibo 100 mg/kg p.o. QD,141.5 g/L
same,Day 14 Hb,[7]; Zibo 100 mg/kg p.o. QD,148.5 g/L
same,Day 7 Hb,[7]; Zibo 300 mg/kg p.o. QD,143.2 g/L
same,Day 14 Hb,[7]; Zibo 300 mg/kg p.o. QD,150.3 g/L
same,Hb compared to vehicle,"[7]; zibotentan 30, 100 and 300 mg/kg, day 7",significant decrease
same,Hb compared to vehicle,"[7]; zibotentan 100 and 300 mg/kg, day 14",significant decrease
same,Plasma Glucose,[8]; Zibo 30 mg/kg p.o. QD 14 days,9.76 ± 0.28 mmol/L
same,Plasma K,[8]; Zibo 30 mg/kg p.o. QD 14 days,4.50 ± 0.06 mmol/L
same,Plasma Na,[8]; Zibo 30 mg/kg p.o. QD 14 days,137.0 ± 0.96 mmol/L
same,Plasma Urea,[8]; Zibo 30 mg/kg p.o. QD 14 days,4.64 ± 0.20 mmol/L
same,Plasma Glucose,[8]; Zibo 100 mg/kg p.o. QD 14 days,9.65 ± 0.30 mmol/L
same,Plasma K,[8]; Zibo 100 mg/kg p.o. QD 14 days,4.52 ± 0.06 mmol/L
same,Plasma Na,[8]; Zibo 100 mg/kg p.o. QD 14 days,137.2 ± 0.97 mmol/L
same,Plasma Urea,[8]; Zibo 100 mg/kg p.o. QD 14 days,4.77 ± 0.25 mmol/L
same,Plasma Glucose,[8]; Zibo 300 mg/kg p.o. QD 14 days,9.34 ± 0.13 mmol/L
same,Plasma K,[8]; Zibo 300 mg/kg p.o. QD 14 days,4.76 ± 0.09 mmol/L
same,Plasma Na,[8]; Zibo 300 mg/kg p.o. QD 14 days,139.4 ± 0.86 mmol/L
same,Plasma Urea,[8]; Zibo 300 mg/kg p.o. QD 14 days,4.94 ± 0.39 mmol/L
same,"Level of Na, K, glucose and urea in the plasma compared to vehicle",[8]; different doses of zibotentan,no change

# From patent US12409174B2, “Combination of zibotentan and dapagliflozin for the treatment of endothelin related diseases” (priority 2020, dated 2025)
